The text below walks through data of patent publication US10487084B2, “Toll-like receptor 7 (TLR7) agonists having a heterobiaryl moiety, conjugates thereof, and methods and uses therefor” (BRISTOL-MYERS SQUIBB COMPANY, priority 2017, dated 2019).

One assay has as its target human TLR7 (Homo sapiens (Human), UniProt Q9NYK1). The experiment in a line: HEK-Blue TLR7 reporter assay (TLR7 agonism). The assay is classed as cell-based. As to conditions: HEK-Blue TLR7 cells, SEAP reporter, 18 h treatment. The method, then:
This example describes a method for assaying TLR7 agonist activity of the compounds disclosed in this specification.
HEK-Blue™ TLR7 cells were added to each well of a 384-well tissue-culture plate (15,000 cells per well) and incubated 16-18 h at 37° C., 5% CO2. Compounds (100 nl) were dispensed into wells containing the HEK-Blue™ TLR cells and the treated cells were incubated at 37° C., 5% CO2. After 18 h treatment ten microliters of freshly-prepared Quanti-Blue™ reagent (Invivogen) was added to each well, incubated for 30 min (37° C., 5% CO2) and SEAP levels measured using an Envision plate reader (OD=620 nm).

A further assay concerns interleukin 6 (IL-6). The experiment in a line: Interleukin 6 induction assay in human whole blood. The assay is classed as cell-based. The note with it: 37° C. for 20 h, AlphaLISA. The method, then: This example describes a method for assaying interleukin 6 induction by compounds disclosed in this specification.
Compounds diluted in DMSO were transferred to individual wells of a Matrix Tech-nologies clear, V-bottom 384-well plate using ECHO acoustic liquid handling technology (25 nL per well). Human whole-blood samples (25 uL) were added to each well using a CyBio FeliX liquid handling instrument. The plate was shaken on a plate shaker for three min before incubating the reaction mixtures at 37° C. for 20 h. Basel RPMI 1640 medium (supplemented with L-glutamine) was then added to each well (25 uL per well) prior to liberating plasma from each sample by centrifugation (450×g, 5 min, ambient temperature). Treated plasma samples (3 uL) were subsequently transferred to individual wells of a white, shallow, 384-well ProxiPlate (Perkin Elmer) using the FeliX liquid handling instrument and their interleukin 6 levels were measured using AlphaLISA technology as described by the manufacturer, PerkinElmer. Data analyses software was used to determine compound EC50 values where the baseline was established using average DMSO values and 100% induction established using reference compound values at the highest concentration tested. EC50's can be determined with software such as Graphpad Prism™.

The subject of the next assay is IFN-α. The note with it: fold lower potency vs corresponding purine-8-one compound; cited from earlier work.

Chain of human TLR7 (Q9NYK1 27-1049): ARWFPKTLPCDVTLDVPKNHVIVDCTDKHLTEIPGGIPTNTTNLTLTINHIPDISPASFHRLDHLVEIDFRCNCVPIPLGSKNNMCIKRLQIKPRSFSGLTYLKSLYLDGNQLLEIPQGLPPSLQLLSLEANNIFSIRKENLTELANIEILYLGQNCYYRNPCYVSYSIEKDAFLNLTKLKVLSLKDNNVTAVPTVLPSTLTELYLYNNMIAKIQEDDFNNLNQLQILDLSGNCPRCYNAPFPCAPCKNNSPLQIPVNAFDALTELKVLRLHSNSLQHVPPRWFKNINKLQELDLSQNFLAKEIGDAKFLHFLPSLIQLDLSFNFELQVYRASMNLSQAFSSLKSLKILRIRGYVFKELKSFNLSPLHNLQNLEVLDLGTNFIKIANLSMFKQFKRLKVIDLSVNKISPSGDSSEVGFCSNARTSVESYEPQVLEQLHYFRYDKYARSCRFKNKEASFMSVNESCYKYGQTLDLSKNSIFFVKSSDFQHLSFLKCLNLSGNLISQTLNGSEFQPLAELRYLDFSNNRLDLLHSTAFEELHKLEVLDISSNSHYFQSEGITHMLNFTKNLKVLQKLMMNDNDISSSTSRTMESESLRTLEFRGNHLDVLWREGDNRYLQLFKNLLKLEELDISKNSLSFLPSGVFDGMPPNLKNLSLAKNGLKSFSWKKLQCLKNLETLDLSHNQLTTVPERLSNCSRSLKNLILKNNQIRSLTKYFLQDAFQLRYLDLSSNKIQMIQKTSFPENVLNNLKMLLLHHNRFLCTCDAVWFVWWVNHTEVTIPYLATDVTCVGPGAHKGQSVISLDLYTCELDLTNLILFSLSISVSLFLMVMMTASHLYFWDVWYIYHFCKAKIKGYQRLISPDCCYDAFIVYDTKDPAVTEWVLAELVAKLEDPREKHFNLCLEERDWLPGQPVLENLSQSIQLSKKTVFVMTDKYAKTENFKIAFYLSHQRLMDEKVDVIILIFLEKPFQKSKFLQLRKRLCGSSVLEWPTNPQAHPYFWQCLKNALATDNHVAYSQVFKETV

The molecule `CCCCOc1nc(N)c2nc(O)n(Cc3ccccc3)c2n1` [Compound B, reference compound] came in with an EC50 on human TLR7 of 474 nM. This lies in the sub-micromolar range. With `CCCCOc1nc(N)c2nc(O)n(Cc3ccc(-c4cnn(CCO)c4)cc3)c2n1` [Ia-01], the EC50 at human TLR7 is 16 nM; with interleukin 6 (IL-6), 108 nM.

As for `CCCCOc1nc(N)c2nc(O)n(Cc3ccc(-c4cnn(C5CNC5)c4)cc3)c2n1` [Ia-03], the concentration giving a half-maximal response (EC50) at human TLR7 came out at 26 nM; in the assay on interleukin 6 (IL-6), 15 nM. For `CCCCOc1nc(N)c2nc(O)n(Cc3ccc(-c4cnn(CCNC5CCC5)c4)cc3)c2n1` [Ia-04], in that order: 7.5 nM and 6.9 nM.

`CCCCOc1nc(N)c2nc(O)n(Cc3ccc(-c4cnn(CC(=O)NC5CNC5)c4)cc3)c2n1` [Ia-06]: the values for the EC50 at human TLR7 and in the assay with interleukin 6 (IL-6) were 24 nM and 88.7 nM, respectively.

For the molecule `CCCCOc1nc(N)c2nc(O)n(Cc3ccc(-c4csc(CN)c4)cc3)c2n1` [Ib-01], it took 106 nM to reach a half-maximal effect in the assay with interleukin 6 (IL-6) (EC50).

For the molecule `CCCCOc1nc(N)c2nc(O)n(Cc3ccc(-c4csc(CN)c4)nc3)c2n1` [Ib-02], in the assay on interleukin 6 (IL-6), the EC50 is 7.55 nM. On to `CCCCOc1nc(N)c2nc(O)n(Cc3ccc(-c4nc(CO)co4)cc3)c2n1` [Ic-01], for which the EC50 on human TLR7 was determined as 99 nM; in the assay with interleukin 6 (IL-6), 365 nM. Take `CCCCOc1nc(N)c2c(n1)N(Cc1cccc(CN3CCCC3)c1)CC(=O)N2` [Vesatolimod, vesatolimod]: the “potency less than that of the corresponding purine-8-one compound, as measured by IFN-α induction” value in the assay on IFN-α was 100 ×.
